Measurements reported in ChEMBL document CHEMBL5291721, “A preclinical secondary pharmacology resource illuminates target-adverse drug reaction associations of marketed drugs” (Nat Commun, 2023).

Tests used:
[1] = target: Glutamate receptor ionotropic, NMDA 1 (Rattus norvegicus, UniProt P35439)
[2] = target: T1, Progesterone receptor (Homo sapiens, UniProt P06401); type: functional
T1 sequence (P06401 whole entry): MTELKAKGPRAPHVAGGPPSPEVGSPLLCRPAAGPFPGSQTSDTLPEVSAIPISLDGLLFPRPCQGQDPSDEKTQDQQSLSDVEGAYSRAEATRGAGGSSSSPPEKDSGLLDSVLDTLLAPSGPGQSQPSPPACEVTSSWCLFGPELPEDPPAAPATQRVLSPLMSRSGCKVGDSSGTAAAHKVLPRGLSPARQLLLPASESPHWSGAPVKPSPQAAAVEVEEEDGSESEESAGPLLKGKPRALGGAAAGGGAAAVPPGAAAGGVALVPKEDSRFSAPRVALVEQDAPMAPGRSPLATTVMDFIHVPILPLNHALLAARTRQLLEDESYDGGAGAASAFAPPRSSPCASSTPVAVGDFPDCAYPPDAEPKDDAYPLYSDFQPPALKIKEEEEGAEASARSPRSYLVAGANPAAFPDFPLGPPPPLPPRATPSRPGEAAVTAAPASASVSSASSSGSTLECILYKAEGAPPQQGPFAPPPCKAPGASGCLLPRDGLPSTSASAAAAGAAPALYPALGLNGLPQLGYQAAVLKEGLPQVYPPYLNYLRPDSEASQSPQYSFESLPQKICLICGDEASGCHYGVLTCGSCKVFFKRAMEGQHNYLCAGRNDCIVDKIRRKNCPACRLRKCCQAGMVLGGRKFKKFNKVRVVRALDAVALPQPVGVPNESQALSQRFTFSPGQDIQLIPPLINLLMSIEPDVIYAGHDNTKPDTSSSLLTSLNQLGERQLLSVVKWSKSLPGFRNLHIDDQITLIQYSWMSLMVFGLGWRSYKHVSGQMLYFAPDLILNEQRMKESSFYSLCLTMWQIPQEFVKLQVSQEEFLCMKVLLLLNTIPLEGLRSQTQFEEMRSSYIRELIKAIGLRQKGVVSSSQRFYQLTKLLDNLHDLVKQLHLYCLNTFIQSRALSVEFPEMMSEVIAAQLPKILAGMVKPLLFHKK

[3] = target: T2, 5-hydroxytryptamine receptor 2C (Homo sapiens, UniProt P28335)
T2 sequence (P28335 whole entry): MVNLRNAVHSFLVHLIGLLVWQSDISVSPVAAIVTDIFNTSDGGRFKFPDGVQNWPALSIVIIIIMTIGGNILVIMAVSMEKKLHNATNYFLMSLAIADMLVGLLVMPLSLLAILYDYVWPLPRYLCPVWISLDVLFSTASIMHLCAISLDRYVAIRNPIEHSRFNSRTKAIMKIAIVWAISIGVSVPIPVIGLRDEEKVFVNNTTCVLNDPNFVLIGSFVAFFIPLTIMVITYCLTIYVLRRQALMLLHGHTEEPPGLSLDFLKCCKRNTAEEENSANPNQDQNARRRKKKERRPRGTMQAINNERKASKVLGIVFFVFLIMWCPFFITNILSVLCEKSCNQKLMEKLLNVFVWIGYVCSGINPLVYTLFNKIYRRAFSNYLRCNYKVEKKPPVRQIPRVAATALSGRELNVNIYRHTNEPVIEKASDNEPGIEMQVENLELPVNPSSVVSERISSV

[4] = target: Neuronal acetylcholine receptor subunit alpha-4 (Homo sapiens, UniProt P43681)
Chain of Neuronal acetylcholine receptor subunit alpha-4 (P43681 whole entry): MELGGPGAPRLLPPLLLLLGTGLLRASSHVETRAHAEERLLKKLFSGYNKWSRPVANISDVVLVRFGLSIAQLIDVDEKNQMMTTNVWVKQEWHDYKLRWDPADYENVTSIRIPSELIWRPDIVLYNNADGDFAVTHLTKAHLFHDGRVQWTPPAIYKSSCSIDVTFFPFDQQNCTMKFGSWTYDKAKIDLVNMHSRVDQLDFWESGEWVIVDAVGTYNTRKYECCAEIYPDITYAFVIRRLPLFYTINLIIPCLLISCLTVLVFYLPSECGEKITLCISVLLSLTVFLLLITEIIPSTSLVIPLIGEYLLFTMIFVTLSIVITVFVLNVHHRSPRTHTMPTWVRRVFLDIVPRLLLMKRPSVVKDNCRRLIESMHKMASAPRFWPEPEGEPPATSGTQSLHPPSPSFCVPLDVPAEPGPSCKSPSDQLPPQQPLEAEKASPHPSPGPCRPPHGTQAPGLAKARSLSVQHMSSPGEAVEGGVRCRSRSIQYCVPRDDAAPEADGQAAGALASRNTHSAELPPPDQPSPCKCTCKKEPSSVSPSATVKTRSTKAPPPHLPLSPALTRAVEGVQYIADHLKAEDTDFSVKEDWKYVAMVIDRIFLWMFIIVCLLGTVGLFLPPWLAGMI

[5] = target: Gamma-aminobutyric acid receptor subunit alpha-1 (Rattus norvegicus, UniProt P62813)
Chain of Gamma-aminobutyric acid receptor subunit alpha-1 (P62813 whole entry): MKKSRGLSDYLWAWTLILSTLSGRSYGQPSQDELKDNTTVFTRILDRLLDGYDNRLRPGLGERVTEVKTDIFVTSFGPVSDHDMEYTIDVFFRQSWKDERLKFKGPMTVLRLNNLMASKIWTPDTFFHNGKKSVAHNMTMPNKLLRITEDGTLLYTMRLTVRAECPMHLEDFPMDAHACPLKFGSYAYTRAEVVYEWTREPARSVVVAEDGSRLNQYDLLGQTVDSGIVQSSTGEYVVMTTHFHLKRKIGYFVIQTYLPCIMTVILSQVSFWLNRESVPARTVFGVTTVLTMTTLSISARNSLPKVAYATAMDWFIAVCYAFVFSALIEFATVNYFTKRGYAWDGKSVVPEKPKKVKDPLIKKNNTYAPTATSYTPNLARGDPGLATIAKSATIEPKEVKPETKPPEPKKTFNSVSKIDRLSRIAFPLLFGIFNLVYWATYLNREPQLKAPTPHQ

[6] = target: T3, Glucocorticoid receptor (Homo sapiens, UniProt P04150)
T3 sequence (P04150 whole entry): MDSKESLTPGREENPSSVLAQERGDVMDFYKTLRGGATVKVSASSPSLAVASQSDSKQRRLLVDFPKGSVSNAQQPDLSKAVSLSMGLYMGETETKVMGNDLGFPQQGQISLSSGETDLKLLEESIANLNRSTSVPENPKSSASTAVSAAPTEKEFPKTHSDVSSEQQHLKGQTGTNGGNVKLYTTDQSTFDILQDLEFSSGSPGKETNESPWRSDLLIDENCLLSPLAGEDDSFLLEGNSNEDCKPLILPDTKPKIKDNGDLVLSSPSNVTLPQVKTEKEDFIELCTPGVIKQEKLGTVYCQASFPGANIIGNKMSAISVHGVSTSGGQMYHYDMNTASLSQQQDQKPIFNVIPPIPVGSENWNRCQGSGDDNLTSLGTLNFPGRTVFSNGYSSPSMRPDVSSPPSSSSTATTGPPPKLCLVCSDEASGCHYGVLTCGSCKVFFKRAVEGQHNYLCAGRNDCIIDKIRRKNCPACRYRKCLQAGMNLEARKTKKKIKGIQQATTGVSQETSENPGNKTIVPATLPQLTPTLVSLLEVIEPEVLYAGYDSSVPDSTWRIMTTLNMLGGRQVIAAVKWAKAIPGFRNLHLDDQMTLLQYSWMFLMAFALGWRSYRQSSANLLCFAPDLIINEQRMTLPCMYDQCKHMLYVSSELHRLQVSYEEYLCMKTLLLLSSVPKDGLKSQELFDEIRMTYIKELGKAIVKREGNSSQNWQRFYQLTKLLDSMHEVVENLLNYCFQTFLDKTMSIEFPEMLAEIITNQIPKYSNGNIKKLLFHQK

[7] = target: Histamine H3 receptor (Homo sapiens, UniProt Q9Y5N1)
Chain of Histamine H3 receptor (Q9Y5N1 whole entry): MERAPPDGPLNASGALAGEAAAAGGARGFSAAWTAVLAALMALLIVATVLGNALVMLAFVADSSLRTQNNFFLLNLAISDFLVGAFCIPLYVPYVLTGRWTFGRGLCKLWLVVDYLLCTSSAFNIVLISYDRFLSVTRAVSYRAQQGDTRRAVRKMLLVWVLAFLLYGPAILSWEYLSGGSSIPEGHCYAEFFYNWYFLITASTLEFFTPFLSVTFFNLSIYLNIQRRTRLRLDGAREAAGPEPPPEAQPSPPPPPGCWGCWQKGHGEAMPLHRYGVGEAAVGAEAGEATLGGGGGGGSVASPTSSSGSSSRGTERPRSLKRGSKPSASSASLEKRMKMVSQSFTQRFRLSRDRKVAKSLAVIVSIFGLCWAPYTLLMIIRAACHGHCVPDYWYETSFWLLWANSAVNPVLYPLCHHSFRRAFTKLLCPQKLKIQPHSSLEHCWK

[8] = target: 3',5'-cyclic-AMP phosphodiesterase 4D (Homo sapiens, UniProt Q08499); type: functional
Chain of 3',5'-cyclic-AMP phosphodiesterase 4D (Q08499 whole entry): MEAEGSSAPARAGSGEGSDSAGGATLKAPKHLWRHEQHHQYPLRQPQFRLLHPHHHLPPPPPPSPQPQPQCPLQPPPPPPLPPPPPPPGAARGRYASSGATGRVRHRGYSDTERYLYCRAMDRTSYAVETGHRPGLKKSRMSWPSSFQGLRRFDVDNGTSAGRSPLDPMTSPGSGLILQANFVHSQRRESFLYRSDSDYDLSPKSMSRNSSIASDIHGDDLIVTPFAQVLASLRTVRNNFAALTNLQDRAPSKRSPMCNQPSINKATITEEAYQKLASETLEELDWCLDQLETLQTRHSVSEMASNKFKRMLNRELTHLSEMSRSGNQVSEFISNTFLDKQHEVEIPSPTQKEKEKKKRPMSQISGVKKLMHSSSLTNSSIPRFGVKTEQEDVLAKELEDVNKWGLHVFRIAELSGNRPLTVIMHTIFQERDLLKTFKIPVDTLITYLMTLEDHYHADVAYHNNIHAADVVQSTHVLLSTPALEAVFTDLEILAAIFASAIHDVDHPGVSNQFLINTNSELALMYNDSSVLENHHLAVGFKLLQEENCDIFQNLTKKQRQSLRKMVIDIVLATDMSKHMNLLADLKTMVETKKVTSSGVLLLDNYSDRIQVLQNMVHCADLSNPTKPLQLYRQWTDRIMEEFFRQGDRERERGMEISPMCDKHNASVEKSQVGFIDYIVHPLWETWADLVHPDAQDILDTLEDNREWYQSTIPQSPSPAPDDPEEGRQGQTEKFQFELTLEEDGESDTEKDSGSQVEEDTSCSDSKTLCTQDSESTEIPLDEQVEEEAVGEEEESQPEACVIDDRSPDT

[9] = target: D(1A) dopamine receptor (Homo sapiens, UniProt P21728); type: functional, cell-based
Chain of D(1A) dopamine receptor (P21728 whole entry): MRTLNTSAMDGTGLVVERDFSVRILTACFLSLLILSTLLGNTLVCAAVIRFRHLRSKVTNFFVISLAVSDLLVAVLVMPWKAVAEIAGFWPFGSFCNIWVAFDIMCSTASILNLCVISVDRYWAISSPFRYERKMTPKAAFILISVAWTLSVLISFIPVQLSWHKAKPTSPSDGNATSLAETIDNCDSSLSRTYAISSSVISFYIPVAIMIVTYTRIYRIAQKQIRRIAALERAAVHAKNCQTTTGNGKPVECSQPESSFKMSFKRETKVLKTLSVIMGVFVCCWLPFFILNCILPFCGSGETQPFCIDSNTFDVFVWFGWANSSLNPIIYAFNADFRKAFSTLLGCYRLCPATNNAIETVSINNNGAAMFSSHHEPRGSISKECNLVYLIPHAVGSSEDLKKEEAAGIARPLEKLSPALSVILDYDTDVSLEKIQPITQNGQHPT

[10] = target: T4, 5-hydroxytryptamine receptor 1A (Homo sapiens, UniProt P08908); type: functional, cell-based
T4 sequence (P08908 whole entry): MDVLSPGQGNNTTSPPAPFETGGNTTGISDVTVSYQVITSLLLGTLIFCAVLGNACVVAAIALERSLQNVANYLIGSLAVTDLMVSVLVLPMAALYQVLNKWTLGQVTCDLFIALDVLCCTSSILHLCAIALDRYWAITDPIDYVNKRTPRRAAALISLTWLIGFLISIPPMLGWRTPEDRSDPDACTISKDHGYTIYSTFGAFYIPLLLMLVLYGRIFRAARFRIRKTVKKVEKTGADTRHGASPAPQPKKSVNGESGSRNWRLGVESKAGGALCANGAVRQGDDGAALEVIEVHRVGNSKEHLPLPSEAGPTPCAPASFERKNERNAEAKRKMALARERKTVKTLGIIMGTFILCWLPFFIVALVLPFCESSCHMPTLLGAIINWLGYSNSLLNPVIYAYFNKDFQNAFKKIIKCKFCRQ
Further: assay procedure not described here.

Row | SMILES | AC50 [1] | AC50 [2] | AC50 [3] | AC50 [4] | AC50 [5] | AC50 [6] | AC50 [7] | AC50 [8] | AC50 [9] | AC50 [10]
1 | NNC(=O)c1ccncc1 [ISONIAZID] | > 30 µM | > 30 µM | > 30 µM | > 30 µM | > 30 µM | > 30 µM | > 30 µM | > 30 µM | > 30 µM | > 30 µM
2 | COc1ccc(CN2CCN(C(c3ccc(F)cc3)c3ccc(F)cc3)CC2)c(OC)c1OC [LOMERIZINE] | > 30 µM | > 30 µM | 16 µM | > 30 µM | > 30 µM | > 30 µM | > 30 µM | > 30 µM | > 30 µM | > 30 µM
3 | CN1CCN=C(c2ccccc2)c2cc(Cl)ccc21 [MEDAZEPAM] | > 30 µM | > 30 µM | 25 µM | 30 µM | > 30 µM | > 30 µM | > 30 µM | 5.2 µM | > 30 µM | > 30 µM
4 | O=C(NCCO[N+](=O)[O-])c1cccnc1 [NICORANDIL] | > 30 µM | > 30 µM | > 30 µM | > 30 µM | > 30 µM | > 30 µM | > 30 µM | > 30 µM | > 30 µM | > 30 µM
5 | O=c1[nH]c2ccccc2n1CCCN1CCN(C(c2ccccc2)c2ccccc2)CC1 [OXATOMIDE] | > 30 µM | > 30 µM | 1.7 µM | > 30 µM | > 30 µM | > 30 µM | > 30 µM | > 30 µM | > 30 µM | > 30 µM
6 | C[C@]12C/C(=C/O)C(=O)C[C@@H]1CC[C@@H]1[C@@H]2CC[C@@]2(C)[C@H]1CC[C@]2(C)O [OXYMETHOLONE] | > 30 µM | 23 µM | > 30 µM | > 30 µM | > 30 µM | 21 µM | > 30 µM | > 30 µM | > 30 µM | > 30 µM
7 | COc1cc2[nH]c(C)c(CCN3CCN(c4ccccc4)CC3)c2cc1OC [OXYPERTINE] | > 30 µM | > 30 µM | 0.49 µM | 27 µM | > 30 µM | > 30 µM | > 30 µM | 9.8 µM | > 30 µM | > 30 µM
8 | COc1cc(C(=O)OCc2cccc(COC(=O)c3cc(OC)c(OC)c(OC)c3)n2)cc(OC)c1OC [PIROZADIL] | > 30 µM | > 30 µM |  | > 30 µM | > 30 µM | > 30 µM | > 30 µM | > 30 µM | > 30 µM | > 30 µM
9 | CCOC(=O)[C@@H](N)Cc1ccc(-c2cc(O[C@H](c3ccc(Cl)cc3-n3ccc(C)n3)C(F)(F)F)nc(N)n2)cc1 [TELOTRISTAT ETHYL] | > 30 µM | > 30 µM | > 30 µM | > 30 µM | > 30 µM | 23 µM | > 30 µM | 5 µM | > 30 µM | 
